Data taken from US20190201494A1, “COMPOSITIONS AND METHODS FOR TREATING NICOTINE WITHDRAWAL” (STC UNM, priority 2016, published 2019).
“Also recorded” adds a separate entry of the source.

Test system: smokers, 36 hours of smoking abstinence
Assay: Replication crossover study: Questionnaire on Smoking Urges-Brief on Day 2 of 36 hours smoking abstinence (Example 2)
Type: in vivo, human
Text: Results from Day 2 are presented. The main differences between Example 1 and Example 2 are: (1) parallel vs crossover design, and (2) placebo content: the parallel design placebo was normal saline, the crossover design was 8.7% NaCl. The purpose of increasing the placebo salt content in the crossover study was to maintain the blind.
Study participants began their first night of smoking abstinence at 20:00 prior to reporting to the inpatient unit of University of New Mexico Clinical and Translational Science Center at 11:30 the following day. During Day 1 at the hospital, participants provided a CO sample, which had to be 50% of their measurement at screening or less than 7 ppm and a negative breath alcohol test (0.00%). Additional criteria for session continuation included negative urine drug test and vitals within normal limits as described in the “Participants” section above. The study nurse evaluated the nares for abnormalities and checked POC glucose to ensure subjects were within normal limits prior to receiving spray.
During Day 1, participants were administered spray at 12:40, ate lunch at 13:00 and completed appetite ratings and a snacking test. Participants ate dinner at 19:00 and lights were turned off at 21:00.
The following morning, participants completed Questionnaire of Smoking Urges at 7:50. Prior to this first questionnaire administration, participants provided a urine sample, which had to be negative for illicit substances, and a CO sample, which had to be either 50% lower than the value on day 1, or less than 7 ppm. An intravenous line was established at 6:45 and a baseline blood sample was drawn. Study nurse checked POC glucose and completed a nares evaluation to confirm participant was within normal limits to receive spray. Spray administration occurred at 8:00, followed by breakfast at 8:20. Post-spray Questionnaire of Smoking Urges was completed at 8:15, 8:45, 9:15, 9:45, 10:30 and 11:30. During this time blood samples were taken for additional analyses. At noon, study nurse evaluated the nares to rule out abnormality and checked POC glucose to ensure that results were within normal limits. The two sessions were separated by one week.
Urges to smoke were rated using the 10-item Questionnaire on Smoking Urges-Brief (Cox et al., 2001. Nicotine Tob Res 3(1):7-16) that consists of 10-questions. The answers are scored from 1 (strongly disagree) to 7 (strongly agree). These questions are the bases for the two factor derived subscales. Factor 1 subscale reflects a strong desire and intention to smoke with smoking perceived as rewarding. Factor 2 subscale reflects an anticipation of relief from negative affect with an urgent desire to smoke. These two subscales were sub-analyses stemming from our main (overall) QSU-Brief analysis. Cravings were measured at −15, 0, +20, +60, +70, +80, +90 and +120 minutes from spray administration on Day 2.
Placebo contained 8.7% NaCl. Per FDA approved protocol, the product was prepared in a biosafety cabinet of UNM Translational Radiopharmacy. Drug Preparation occurred 30 minutes before administration. […] or placebo was placed in a 10 mL amber glass bottle (Gerresheimer AG, Düsseldorf, Germany), which was capped with a 10 mg sterile nasal pump (Aero Pump GmbH, Hochheim, Germany). Assembled product was primed per manufacturer's recommendations before 0.6 ml volume was administered to study participants. In a randomized fashion, study nurse administered one spray in each nostril every three minutes for the total of six sprays of either insulin or placebo. As each spray delivers 0.1 ml of fluid, and the concentration of insulin in Novolin R is 100 IU/mL, administering six sprays delivers 60 IU of insulin.
Random coefficient models were constructed for analyzing study outcomes. Treatment, time, treatment by time interaction, and sequence were included as fixed effects. Time nested within subjects, and time nested within treatment nested within subjects were included as random effects. […]

Substance: intranasal insulin: bulk human Regular insulin (U100 Novolin R, Novo Nordisk US), 100 IU/ml, six nasal sprays delivering 60 IU
- Smoking urges (Questionnaire of Smoking Urges) compared to placebo, replication study (60 IU intranasal, crossover, morning of Day 2, 36 hours abstinence, p≤0.05): decreased significantly; also recorded: This finding was replicated
- QSU-Brief Factor 2 compared to placebo, replication study (60 IU, crossover, Day 2, p=0.18): no effect; also recorded: not Factor 2 scale
- QSU-Brief Factor 1 compared to placebo, replication study (60 IU, crossover, Day 2, p≤0.05): significantly decreased; also recorded: the effect was driven by intranasal insulin's effect on Factor 1
- QSU-Brief Factor 2, effect of treatment, b, replication study (SE(b)=0.87, z=1.34, p=0.18): 1.16
- QSU-Brief Factor 1, effect of treatment, b, replication study (SE(b)=1.15, z=2.16, p≤0.05): 2.49
- Smoking urges, effect of treatment, b, replication study (SE(b)=1.91, z=1.92, p≤0.05): 3.67
